Broadly, the IC50 is the concentration that inhibits the measured activity by half.

Here are results for 22 compounds from the supplement of paper PMC8498969.

In assay [1] the test system is HEK293. The assay is described as follows: cytotoxicity IC50 (ATP content, uninfected cells); higher = less cytotoxic. The conditions noted are these: infection: none.
The subject of assay [2] is HEK293. As to the kind of experiment: maximal inhibition of ZIKV NS1 production (% inhibition); higher = stronger antiviral effect. How it is done: (§1)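 HEK293 cells in 1536-well plates were pre-treated with compound for 1 h, infected with ZIKV (MOI 1) for 24 h, and NS1 antigen (intra- plus extracellular) was measured by TR-FRET. Confirmation used 11-point 1:3 dilutions, and IC50 and maximal inhibition were fitted in GraphPad Prism.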

Assay [3] deals with HEK293. As to the kind of experiment: IC50 for inhibition of ZIKV NS1 production. As to the method: as §1

Regarding `Cn1c(=O)n(-c2ccc(C(C)(C)C#N)cc2)c2c3cc(-c4cnc5ccccc5c4)ccc3ncc21`, in the assay with HEK293 [1], the “cytotoxicity IC50” value was 0.53 µM. The maximal inhibition in the assay with HEK293 [2] turned out to be 82. Also, the IC50 with HEK293 [3] was 3.2 µM.
Regarding `Cc1c(O)cccc1C(=O)N[C@@H](CSc1ccccc1)[C@H](O)CN1C[C@H]2CCCC[C@H]2C[C@H]1C(=O)NC(C)(C)C`, the “cytotoxicity IC50” value with HEK293 [1] was greater than 100 µM. The maximal inhibition in the assay with HEK293 [2] was 84. The compound further yielded an IC50 in the assay on HEK293 [3] of 24 µM.
The matching figures for `CC[C@@]1(O)C(=O)OCc2c1cc1n(c2=O)Cc2cc3cc(O)ccc3nc2-1`: greater than 100 µM, 100 and 0.047 µM.
For `COc1ccc(OC)c(-c2nnc3ccc(-c4ccc(OC)c(O[C@@H]5CCOC5)c4)nn23)c1`, in that order: greater than 100 µM, 42 and 40 µM.
For `CS(=O)(=O)N1CCN(Cc2cc3nc(-c4cccc5[nH]ncc45)nc(N4CCOCC4)c3s2)CC1`, in that order: 70 µM, 65 and 5.6 µM.
Take `Cc1ccc(C(=O)N(CCCN)[C@@H](c2nc3cc(Cl)ccc3c(=O)n2Cc2ccccc2)C(C)C)cc1`: the “cytotoxicity IC50” value in the assay with HEK293 [1] was 37 µM. Also, the maximal inhibition in the assay on HEK293 [2] was found to be 98. In the assay with HEK293 [3], the IC50 amounted to 0.067 µM.
For `Cc1cc(C2CCCCC2)n(O)c(=O)c1`, in that order: 20 µM, 100 and 14 µM.
For `O=C(O)c1ccc2cc(-c3ccc(O)c(C45CC6CC(CC(C6)C4)C5)c3)ccc2c1`, in that order: 45 µM, 97 and 1.7 µM.
For `OCCN1CCN(CCCN2c3ccccc3Sc3ccc(C(F)(F)F)cc32)CC1`, the “cytotoxicity IC50” value in the assay with HEK293 [1] was greater than 100 µM. The same compound registered a maximal inhibition in the assay on HEK293 [2] of 84. In the assay on HEK293 [3], this compound showed an IC50 of 25 µM.
The matching figures for `CC[C@@]1(O)C(=O)OCc2c1cc1n(c2=O)Cc2cc3c(CN(C)C)c(O)ccc3nc2-1`: greater than 100 µM, 96 and 0.051 µM.
As to `Cc1ccc(-c2ncn(-c3ccc(Nc4nccc(-c5cccc(N6CCOCC6)c5)n4)cc3)n2)cn1`, in the assay with HEK293 [1], the “cytotoxicity IC50” value came out at 9.8 µM. Besides, in the assay on HEK293 [2], the maximal inhibition stood at 87. This compound also showed an IC50 with HEK293 [3] of 1.9 µM.
The matching figures for `O=C1/C(=C/c2ccccc2)C[C@@]2(O)[C@H]3Cc4ccc(O)c5c4[C@@]2(CCN3CC2CC2)[C@H]1O5`: 2.4 µM, 106 and 7.2 µM.
`Clc1ccc(CCC(Cn2ccnc2)Sc2c(Cl)cccc2Cl)cc1` (stereo unspecified): in the assay with HEK293 [1], the “cytotoxicity IC50” value was 16 µM. The compound further came in with a maximal inhibition with HEK293 [2] of 97. This compound also registered an IC50 in the assay on HEK293 [3] of 39 µM.
`Nc1ccc(-c2ccc3ncc4ccc(=O)n(-c5cccc(C(F)(F)F)c5)c4c3c2)cn1`: in the assay on HEK293 [1], the “cytotoxicity IC50” value was greater than 100 µM. For the same compound, the maximal inhibition in the assay with HEK293 [2] stood at 90. Moreover, in the assay on HEK293 [3], the IC50 is 0.72 µM.
The matching figures for `c1cnc2c(c1)ccc1cccnc12`: 3.6 µM, 99 and 14 µM.
Regarding `COc1cc2nc(-c3cc(F)ccc3O)nc(N[C@@H]3CNC[C@H]3C(C)(C)O)c2cc1OC`, the “cytotoxicity IC50” value with HEK293 [1] was 45 µM. Moreover, the maximal inhibition in the assay with HEK293 [2] worked out at 98. Moreover, in the assay with HEK293 [3], the IC50 is 12 µM.
`CC(C)c1ccc(Cn2ccc3c4c(N)nc(NC5CC5)nc4ccc32)cc1`: the “cytotoxicity IC50” value in the assay with HEK293 [1] is 78 µM. The same compound returned a maximal inhibition in the assay on HEK293 [2] of 106. In the assay with HEK293 [3], this compound came in with an IC50 of 3 µM.
In the case of `CC(C)(O)/C=C/C(=O)[C@](C)(O)[C@H]1[C@H](O)C[C@@]2(C)[C@@H]3CC=C4[C@@H](C=C(O)C(=O)C4(C)C)[C@]3(C)C(=O)C[C@]12C`, in the assay on HEK293 [1], the “cytotoxicity IC50” value was determined as 3 µM. Moreover, the maximal inhibition with HEK293 [2] turned out to be 52. The same compound yielded an IC50 with HEK293 [3] of 45 µM.
For `COc1c(C)c2c(c(O)c1C/C=C(\C)CCC(=O)O)C(=O)OC2`, in that order: greater than 100 µM, 106 and 0.54 µM.
With `O=C1NCCN1CCN1CCC(c2cn(-c3ccc(F)cc3)c3ccc(Cl)cc23)CC1`, the “cytotoxicity IC50” value in the assay with HEK293 [1] is 6.5 µM. Besides, the maximal inhibition in the assay with HEK293 [2] was determined as 99. In the assay with HEK293 [3], this compound yielded an IC50 of 7.4 µM.
For `Cc1cc2c(F)c(Oc3ncnn4cc(OC[C@@H](C)O)c(C)c34)ccc2[nH]1`, in that order: 1.4 µM, 104 and 2.9 µM.
The matching figures for `C/C=C(\C)C(=O)N[C@@H](c1ccccc1)[C@@H](O)C(=O)O[C@H]1C[C@@]2(O)[C@@H](OC(=O)c3ccccc3)[C@@H]3[C@]4(OC(C)=O)CO[C@@H]4C[C@H](O)[C@@]3(C)C(=O)[C@H](OC(C)=O)C(=C1C)C2(C)C`: greater than 100 µM, 67 and 0.22 µM.
